In series [1] the test system is human hepatocytes. Kind of series: Metabolism in primary cultures of human hepatocytes. The series is classed as in vitro ADME. Here is the method: (§1) Pharmacokinetic studies performed on participating subjects detected a high Cmax and a Tmax at 1-2 hours following administration. […] Metabolism of CDB-4124 by the liver provides the opportunity for liver damage and greatly reduces the concentration of the antiprogestin before it reaches the systemic circulation. Thus, alternative routes of administration of antiprogestins that avoid first pass metabolism such as, without limitation, intravenous, intramuscular, and sublingual, should allow antiprogestins to be absorbed directly into the systemic circulation and thereby provide a method for treating progestone-dependent conditions while avoiding liver toxicity. Administration routes which avoid first pass metabolism may also require less drug per dose to achieve the same therapeutic benefit relative to oral administration.

The nature of series [2]: Thermodynamic solubility (solid shaken in solvent at 37° C., filtrate by LC/UV). It counts as physicochemical. Here is the method: Briefly, 300 ul of solvent (ethanol, 0.1 M HCl or distilled H2O) were added to 14-16 mg of the solid compound (5 parallel measurements per sample, per solvent, mean concentrations 93-107 mM). The mixtures were shaken at 37° C. for 24 and 72 hours. Concentrations of the filtrates were determined by liquid chromatography with UV detector (LC/UV) with 3-point calibration.
Crystal form was checked by X-ray powder diffraction (XRPD) after recovering the slurry at 24 and 72 hours. […] The exact cause of this observed phenomenon is not known.

Series [3] in a line: Cmax after vaginal administration extrapolated from beagles to humans. The series is classed as in vivo. Particulars: for Predicted Cmax for vaginal administration as percentage of the same dose administered orally: humans. Here is the method: FIG. 2 illustrates the actual Cmax observed for Proellex (CDB-4124) and its monodemethylated metabolite CDB-4453, following oral administration of CDB-4124 at 12.5 mg, 25 mg and 50 mg doses as well as the projected Cmax for 3 mg, 6 mg and 9 mg doses. FIG. 2 also illustrates the actual Cmax observed for Proellex (CDB-4124) and its monodemethylated metabolite CDB-4453, following vaginal administration of CDB-4124 at 12.5 mg, 25 mg and 50 mg doses.
The maximum circulating concentrations (Cmax) of CDB-4124 obtained following vaginal administration to beagles were extrapolated to humans for the 12.5 mg, 25 mg and 50 mg doses actually administered during the Phase III clinical studies.
Because a high concentration of the drug in the systemic circulation (and associated first pass metabolism of the drug) is not reached by local administration, avoidance of the severe liver toxicity observed in a small percentage of subjects following oral administration of CDB-4124 in previous Phase III clinical studies at doses of 25 and 50 mg is a surprising advantage of administering the drug locally. Similar advantages should inure to local administration of other antiprogestins.

Series [4] is described as follows: Pharmacokinetic studies on clinical trial subjects after oral CDB-4124. The series is classed as in vivo, human. Here is the method: The maximum concentrations of CDB-4124 and its mono-demethylated metabolite (CDB-4453) for the 12.5 mg dose were 25% of the 50 mg dose. All liver toxicities resolved in those women that returned for safety follow-ups, including those subjects that developed liver-associated serious adverse effects (SAEs).
as §1

Values after ≈ are worked out from the molar mass of the structure shown. Read-outs that look alike come from different tables or passages of the source.

As usually defined, the solubility (thermodynamic) is solubility found after equilibrating the solid with the medium. The Tmax is the time from dosing to the highest level. `COCC(=O)[C@@]1(OC(C)=O)CC[C@H]2[C@@H]3CCC4=CC(=O)CCC4=C3[C@@H](c3ccc(N(C)C)cc3)C[C@@]21C` [CDB-4124]: the “Production of the mono-demethylated metabolite” value in series [1] is listed as “rapidly produce the mono-demethylated metabolite”. The thermodynamic solubility at 72 h stood at 53.09 µM (≈ 26.8 µg/mL) in series [2] (0.1M HCl, 24 h, read-out: Thermodynamic solubility, 0.1M HCl, Mean); 56.12 µM (≈ 28.4 µg/mL) in series [2] (0.1M HCl, 72 h, read-out: Thermodynamic solubility, 0.1M HCl, Mean); 7.10 µM (≈ 3.59 µg/mL) in series [2] (distilled water, 24 h, read-out: Thermodynamic solubility, distilled water, Mean); 3.20 µM (≈ 1.62 µg/mL) in series [2] (distilled water, 72 h, read-out: Thermodynamic solubility, distilled water, Mean). Further, the “Thermodynamic solubility, Ethanol, Mean” value in series [2] (24 h) was determined as 36800 µM; in series [2] (72 h), 34100 µM. The “Predicted Cmax for vaginal administration as percentage of the same dose administered orally” value in series [3] (12.5 mg dose) is given as “approximately 6.5%”; in series [3] (50 mg dose), “approximately 2%”. The “Cmax with 12.5 mg vaginal dose relative to 50 mg oral dose” value in series [3] (12.5 mg vaginal vs 50 mg oral) is on record as 2%. Moreover, in series [4] (following oral administration), the Cmax result is listed as “high”. The “Monodemethylated metabolite detected (first pass metabolism)” value in series [4] (following oral administration) is given as “Large quantities”. The Tmax in series [4] (following oral administration) was in the range of 1 to 2 h. Further, in series [4] (oral CDB-4124, 12.5 mg vs 50 mg), the “Maximum concentration for the 12.5 mg dose relative to the 50 mg dose” value is 25%.

The values above are taken from patent publication US20150203526A1, “NOVEL 19-NOR-STEROIDS AND THEIR USE FOR TREATING PROGESTERONE- DEPENDENT CONDITIONS” (REPROS THERAPEUTICS INC., priority 2010, published 2015).
